≈ marks a conversion by molar mass, not a printed value. Calls of active or inactive are those of the source. The rule behind the calls is not given here.
How the values were obtained:
[1] = Solubility pH 4.5 buffer; format: physicochemical
[2] = molecular target: Alcohol dehydrogenase class-3 (Homo sapiens) (UniProt P11766); test: Binding affinity to Alcohol dehydrogenase class-3 in human MDA-MB-468 cells at 10 uM incubated for 2 hrs in presence of 2-[4-[(1S)-1-[[6-(10-aminodecyl)-4,5-dichloro-1-methyl-indole-2-carbonyl]amino]-2-hydroxy-ethyl]phenyl]sulfonylacetic acid by quantitative chemical proteomics assay; format: cell-based
Sequence of Alcohol dehydrogenase class-3 (Homo sapiens) (P11766 2-374 limits assumed): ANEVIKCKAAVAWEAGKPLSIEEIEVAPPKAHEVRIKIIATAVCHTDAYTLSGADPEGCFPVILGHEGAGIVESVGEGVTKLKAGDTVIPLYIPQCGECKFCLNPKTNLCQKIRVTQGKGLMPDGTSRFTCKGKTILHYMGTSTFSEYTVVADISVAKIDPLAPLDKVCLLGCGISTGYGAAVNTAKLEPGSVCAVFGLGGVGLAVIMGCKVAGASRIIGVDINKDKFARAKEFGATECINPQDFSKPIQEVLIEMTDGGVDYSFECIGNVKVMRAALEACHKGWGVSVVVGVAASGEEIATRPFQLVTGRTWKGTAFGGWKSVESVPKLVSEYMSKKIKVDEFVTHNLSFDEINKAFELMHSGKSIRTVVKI

[3] = Stability in mouse liver microsomes relative to hepatic blood flow; format: ADME, Microsome; settings: read-out: Stability
[4] = Efflux ratio of permeability from apical to basolateral side over basolateral to apical side in human Caco2 cells; format: ADME, cell-based; settings: caco-2
[5] = Permeability from apical to basolateral side in human Caco2 cells; format: ADME, cell-based; settings: caco-2
[6] = Stability in rat liver microsomes relative to hepatic blood flow; format: ADME, Microsome; settings: read-out: Stability
[7] = molecular target: T1, 3-hydroxyisobutyrate dehydrogenase, mitochondrial (Homo sapiens) (UniProt P31937); test: Binding affinity to 3-hydroxyisobutyrate dehydrogenase in human MDA-MB-468 cells at 10 uM incubated for 2 hrs in presence of 2-[4-[(1S)-1-[[6-(10-aminodecyl)-4,5-dichloro-1-methyl-indole-2-carbonyl]amino]-2-hydroxy-ethyl]phenyl]sulfonylacetic acid by quantitative chemical proteomics assay; format: cell-based
T1 sequence (whole entry): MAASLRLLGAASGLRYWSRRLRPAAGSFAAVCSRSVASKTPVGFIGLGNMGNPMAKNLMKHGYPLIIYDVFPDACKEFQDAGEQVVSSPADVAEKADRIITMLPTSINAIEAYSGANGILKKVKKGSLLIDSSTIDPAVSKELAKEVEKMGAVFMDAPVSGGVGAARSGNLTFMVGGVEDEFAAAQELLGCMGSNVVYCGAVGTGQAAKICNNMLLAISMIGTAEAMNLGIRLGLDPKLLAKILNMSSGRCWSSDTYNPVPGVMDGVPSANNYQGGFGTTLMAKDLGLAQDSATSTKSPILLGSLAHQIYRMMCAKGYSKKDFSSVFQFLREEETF

[8] = Protein binding in 10% fetal calf serum; format: ADME, cell-free, Bos taurus; settings: cattle, read-out: PB (converted)
[9] = Stability in human liver microsomes relative to hepatic blood flow; format: ADME, Microsome; settings: read-out: Stability
[10] = Protein binding in mouse plasma; format: ADME, cell-free; settings: read-out: PPB (converted)
[11] = molecular target: T2, D-3-phosphoglycerate dehydrogenase (Homo sapiens, UniProt O43175); test: Inhibition of PHGDH in human MDA-MB-468 cells assessed as reduction in [13C]-serine incubated for 72 hrs using [13C]glucose as substrate by LC-MS/MS analysis; format: cell-based
T2 sequence (O43175 whole entry): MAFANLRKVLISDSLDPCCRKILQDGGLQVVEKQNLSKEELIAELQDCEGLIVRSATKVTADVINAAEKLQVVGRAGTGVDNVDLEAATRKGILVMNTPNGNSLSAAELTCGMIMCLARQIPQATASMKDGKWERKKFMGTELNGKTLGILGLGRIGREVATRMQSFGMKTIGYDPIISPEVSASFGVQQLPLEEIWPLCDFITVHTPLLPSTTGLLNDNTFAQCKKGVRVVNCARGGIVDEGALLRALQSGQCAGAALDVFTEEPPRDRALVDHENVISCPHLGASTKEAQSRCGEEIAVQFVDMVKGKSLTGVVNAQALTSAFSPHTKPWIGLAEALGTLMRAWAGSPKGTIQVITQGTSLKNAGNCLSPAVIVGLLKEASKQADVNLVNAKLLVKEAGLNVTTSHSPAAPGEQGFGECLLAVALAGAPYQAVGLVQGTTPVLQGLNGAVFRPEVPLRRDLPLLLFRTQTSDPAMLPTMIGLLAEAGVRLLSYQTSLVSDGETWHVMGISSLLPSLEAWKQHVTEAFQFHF

[12] = Stability in mouse hepatocytes relative to hepatic blood flow; format: ADME, cell-based, Hepatocyte; settings: read-out: Stability
[13] = molecular target: T1, 3-hydroxyisobutyrate dehydrogenase, mitochondrial (Homo sapiens); test: Binding affinity to 3-hydroxyisobutyrate dehydrogenase in human MDA-MB-468 cells at 10 uM incubated for 2 hrs in presence of 12-amino-2-[4-[(1S)-1-[(4,5-dichloro-1,6-dimethyl-indole-2-carbonyl)amino]-2-hydroxy-ethyl]phenyl]sulfonyl-dodecanoic acid by quantitative chemical proteomics assay; format: cell-based
[14] = Solubility pH 6.8 buffer; format: physicochemical
[15] = Permeability from basolateral to apical side in human Caco2 cells; format: ADME, cell-based; settings: caco-2
[16] = molecular target: Alcohol dehydrogenase class-3 (Homo sapiens) (UniProt P11766); test: Binding affinity to Alcohol dehydrogenase class-3 in human MDA-MB-468 cells at 10 uM incubated for 2 hrs in presence of 12-amino-2-[4-[(1S)-1-[(4,5-dichloro-1,6-dimethyl-indole-2-carbonyl)amino]-2-hydroxy-ethyl]phenyl]sulfonyl-dodecanoic acid by quantitative chemical proteomics assay; format: cell-based

- solubility [1]: 64 mg/mL (≈ 128 mM)
- Activity [2]: Active
- hepatic extraction ratio [3]: < 0.23
- Ratio [4]: 11
- permeability [5]: 0.2 ×10⁻⁶ cm/s
- hepatic extraction ratio [6]: < 0.24
- Activity [7]: Active
- fraction unbound [8]: 0.17
- hepatic extraction ratio [9]: < 0.24
- fraction unbound [10]: 0.004
- IC50 [11]: 2200 nM
- hepatic extraction ratio [12]: 0.38
- Activity [13]: Active
- solubility [14]: 59 mg/mL (≈ 118 mM)
- permeability [15]: 0.2 ×10⁻⁶ cm/s
- Activity [16]: Active
Structure (SMILES): Cc1cc2c(cc(C(=O)N[C@H](CO)c3ccc(S(=O)(=O)CC(=O)O)cc3)n2C)c(Cl)c1Cl

Source: ChEMBL document CHEMBL4373702, “Intracellular Trapping of the Selective Phosphoglycerate Dehydrogenase (PHGDH) Inhibitor BI-4924 Disrupts Serine Biosynthesis” (J Med Chem, 2019)
